From ChEMBL document CHEMBL3272053, “(exo, exo)-2-Aryltropane-3-carboxylic esters, hypoglycemic agents with accompanying analgesic activity” (J Med Chem, 1978)
Calls of active or inactive are those of the source. The rule behind the calls is not given here.

Legend:
Rattus norvegicus [1] = experiment: Hypoglycemic activity in Sprague-Dawley rat assessed as reduction of blood glucose level at 88 mg/kg, po by glucagon-impaired glucose disposal test relative to control; type: functional; parameters: scale not given: the % may be the effect or the level left
Mus musculus [2] = experiment: Analgesic activity in sc dosed Swiss-Webster mouse assessed as reduction of acetylcholine-induced writhing; type: functional
Rattus norvegicus [3] = experiment: Analgesic activity in rat assessed as protection against intraarterial bradykinin-induced pain response at 100 mg/kg, sc; type: functional, organism-based; parameters: dose 100 mg/kg
Rattus norvegicus [4] = experiment: Narcotic analgesic activity in fed Sprague-Dawley rat at 120 mg/kg, sc measured at 30 mins by D'Amour-Smith tail-flick test; type: functional; settings: route subcutaneous
Rattus norvegicus [5] = experiment: Hypoglycemic activity in fasted Sprague-Dawley rat assessed as reduction of blood glucose level at 100 mg/kg, po relative to control; type: functional; parameters: scale not given: the % may be the effect or the level left
Mus musculus [6] = experiment: Analgesic activity in Swiss-Webster mouse assessed as reduction of acetylcholine-induced writhing at 75 mg/kg, sc relative to control; type: functional; parameters: scale not given: the % may be the effect or the level left; settings: route subcutaneous
Rattus norvegicus [7] = experiment: Narcotic analgesic activity in fasted Sprague-Dawley rat at 240 mg/kg, po measured at 15 mins by D'Amour-Smith tail-flick test relative to control; type: functional
Rattus norvegicus [8] = species: Rattus norvegicus; experiment: Narcotic analgesic activity in Sprague-Dawley rat at 15 mins by D'Amour-Smith tail-flick test in presence of microsomal enzyme inhibitor SKF 525-A; type: functional, organism-based
Rattus norvegicus [9] = experiment: Narcotic analgesic activity in fasted Sprague-Dawley rat at 120 mg/kg,sc measured at 30 mins by D'Amour-Smith tail-flick test in presence of opioid antagonist nalorphine; type: functional, organism-based; parameters: dose 120 mg/kg
Rattus norvegicus [10] = experiment: Hypoglycemic activity in Sprague-Dawley rat assessed as reduction of blood glucose level at 88 mg/kg, po by glucagon-impaired glucose disposal test in presence of opioid antagonist nalorphine; type: functional, organism-based; parameters: dose 88 mg/kg
Rattus norvegicus [11] = experiment: Hypoglycemic activity in sc dosed fasted Sprague-Dawley rat assessed as reduction of blood glucose level measured for 0.5 to 2 hrs; type: functional, organism-based
Rattus norvegicus [12] = experiment: Hypoglycemic activity in Sprague-Dawley rat assessed as reduction of blood glucose level at 88 mg/kg, po by glucagon-impaired glucose disposal test in presence of microsomal enzyme inhibitor SKF 525-A; type: functional, organism-based; parameters: dose 88 mg/kg
Rattus norvegicus [13] = experiment: Hypoglycemic activity in glucose/glycogen loaded Sprague-Dawley rat assessed as reduction of blood glucose level at 87 mg/kg, po; type: functional, organism-based; parameters: dose 87 mg/kg
Rattus norvegicus [14] = experiment: Hypoglycemic activity in Sprague-Dawley rat assessed as reduction of blood glucose level at 100 mg/kg, po by glucagon-impaired glucose disposal test relative to control; type: functional; parameters: scale not given: the % may be the effect or the level left
Rattus norvegicus [15] = experiment: Toxicity in Sprague-Dawley rat assessed as rigidity at 240 mg/kg, po; type: organism-based; parameters: dose 240 mg/kg, route oral; settings: in vivo
Rattus norvegicus [16] = experiment: Toxicity in Sprague-Dawley rat assessed as tremor at 240 mg/kg, po; type: organism-based; parameters: dose 240 mg/kg, route oral; settings: in vivo
Rattus norvegicus [17] = experiment: Hypoglycemic activity in glucose loaded Sprague-Dawley rat assessed as reduction of blood glucose level at 100 mg/kg, po relative to control; type: functional; parameters: scale not given: the % may be the effect or the level left
Rattus norvegicus [18] = experiment: Toxicity in Sprague-Dawley rat assessed as hyperexcitability at 240 mg/kg, po; type: organism-based; parameters: dose 240 mg/kg, route oral; settings: in vivo
Rattus norvegicus [19] = experiment: Hypoglycemic activity in glucose loaded Sprague-Dawley rat assessed as reduction of blood glucose level at 100 mg/kg, po in presence of microsomal enzyme inhibitor SKF 525-A; type: functional, organism-based; parameters: dose 100 mg/kg
Rattus norvegicus [20] = experiment: Hypoglycemic activity in glucose loaded Sprague-Dawley rat assessed as reduction of blood glucose level at 89 mg/kg, po relative to control; type: functional; parameters: scale not given: the % may be the effect or the level left
Mus musculus [21] = experiment: Analgesic activity in Swiss-Webster mouse assessed as reduction of acetylcholine-induced writhing at 25 mg/kg, sc relative to control; type: functional; parameters: scale not given: the % may be the effect or the level left; settings: route subcutaneous
Rattus norvegicus [22] = experiment: Narcotic analgesic activity in fasted Sprague-Dawley rat at 240 mg/kg, po measured at 60 mins by D'Amour-Smith tail-flick test relative to control; type: functional
Rattus norvegicus [23] = experiment: Narcotic antagonist activity in fed Sprague-Dawley rat assessed as decrease in phenazocine-induced analgesic activity at 80 mg/kg, sc; type: functional; parameters: scale not given: the % may be the effect or the level left; settings: route subcutaneous
Rattus norvegicus [24] = experiment: Toxicity in Sprague-Dawley rat assessed as convulsion at 240 mg/kg, po; type: organism-based; parameters: dose 240 mg/kg, route oral; settings: in vivo
Rattus norvegicus [25] = experiment: Toxicity in fasted Sprague-Dawley rat assessed as mortality at 240 mg/kg, po measured at 60 mins; type: organism-based; parameters: dose 240 mg/kg, route oral; settings: in vivo, 1 h
Mus musculus [26] = experiment: Analgesic activity in Swiss-Webster mouse assessed as reduction of acetylcholine-induced writhing at 50 mg/kg, po relative to control; type: functional; parameters: scale not given: the % may be the effect or the level left
Rattus norvegicus [27] = experiment: Hypoglycemic activity in glucose loaded Sprague-Dawley rat assessed as reduction of blood glucose level at 64 mg/kg, po relative to control; type: functional; parameters: scale not given: the % may be the effect or the level left
Rattus norvegicus [28] = experiment: Hypoglycemic activity in glucose loaded Sprague-Dawley rat assessed as reduction of blood glucose level at 89 mg/kg, po in presence of microsomal enzyme inhibitor SKF 525-A; type: functional, organism-based; parameters: dose 89 mg/kg
[29] = Mus musculus, Swiss-Webster, sc, read-out: ED50

COC(=O)[C@H]1C[C@H]2CC[C@H]([C@H]1c1cccc(O)c1)N2C.Cl
Activity (Rattus norvegicus [1]): <20%
ED50 (Mus musculus [2]; [29]): 24 mg/kg
Activity (Rattus norvegicus [3]): inactive
Activity (Rattus norvegicus [4]): <20%

CCOC(CN1[C@@H]2CC[C@@H]1[C@@H](c1cccs1)[C@@H](C(=O)OC)C2)OCC
Activity (Rattus norvegicus [5]): 47%
Activity (Mus musculus [6]): 27%
Activity (Rattus norvegicus [7]): 87%

COC(=O)[C@H]1C[C@H]2CC[C@H]([C@H]1c1cccs1)N2C (racemic)
Activity (Rattus norvegicus [8]): inactive
Activity (Rattus norvegicus [9]): inactive
Activity (Rattus norvegicus [10]): Active
Activity (Rattus norvegicus [11]): inactive
Activity (Rattus norvegicus [12]): inactive

COC(=O)[C@H]1CCCN(C)[C@@H]1c1cccs1 (relative stereo)
Activity (Rattus norvegicus [13]): inactive

COC(=O)[C@H]1C[C@H]2CC[C@H]([C@H]1c1ccc(O)cc1)N2C
Activity (Rattus norvegicus [14]): <20%

CCOCCN1[C@@H]2CC[C@@H]1[C@@H](c1cccs1)[C@@H](C(=O)OC)C2
Activity (Rattus norvegicus [15]): Toxic
Activity (Mus musculus [6]): 67%
Activity (Rattus norvegicus [7]): 100%
Activity (Rattus norvegicus [16]): Toxic
Activity (Rattus norvegicus [17]): 73%
Activity (Rattus norvegicus [18]): Toxic
Activity (Rattus norvegicus [19]): inactive

COC(=O)[C@H]1C[C@H]2CC[C@H]([C@H]1c1cccs1)N2Cc1ccccc1
Activity (Mus musculus [6]): 33%
Activity (Rattus norvegicus [4]): <20%
Activity (Rattus norvegicus [14]): <20%

COC(=O)[C@H]1C[C@H]2CC[C@H]([C@H]1c1cccs1)N2C
Activity (Rattus norvegicus [8]): inactive
Activity (Rattus norvegicus [9]): inactive
Activity (Rattus norvegicus [10]): Active
Activity (Rattus norvegicus [12]): inactive

COC(=O)[C@H]1C[C@H]2CC[C@H]([C@H]1c1cccs1)N2CC1CCCO1 (stereo partly drawn)
Activity (Rattus norvegicus [5]): 39%
Activity (Rattus norvegicus [7]): 72%

COC(=O)[C@H]1C[C@H]2CC[C@H]([C@H]1c1cccs1)N2CC(N)=O.Cl
Activity (Rattus norvegicus [20]): 66%
Activity (Rattus norvegicus [15]): Toxic
Activity (Rattus norvegicus [7]): 72%
Activity (Mus musculus [21]): 13%

COC(=O)[C@H]1C[C@H]2CC[C@@H](N2)[C@H]1c1cccc(O)c1.Cl
Activity (Rattus norvegicus [1]): <20%
Activity (Rattus norvegicus [7]): <20%
Activity (Rattus norvegicus [22]): <20%
ED50 (Mus musculus [2]; [29]): 24 mg/kg

COC(=O)[C@H]1C[C@H]2CC[C@H]([C@H]1c1ccccc1)N2C (stereo in doubt; (-)-5)
Activity (Rattus norvegicus [23]): 73%
Activity (Rattus norvegicus [24]): Toxic
ED50 (Mus musculus [2]; [29]): 18 mg/kg
Activity (Rattus norvegicus [25]): Toxic

COC(=O)[C@H]1C[C@H]2CC[C@H]([C@H]1c1cccs1)N2CCCO.Cc1ccc(S(=O)(=O)O)cc1
Activity (Rattus norvegicus [15]): Toxic
Activity (Rattus norvegicus [24]): Toxic
Activity (Rattus norvegicus [7]): 92%
Activity (Rattus norvegicus [16]): Toxic
Activity (Mus musculus [26]): 33%
Activity (Rattus norvegicus [27]): 27%

COC(=O)[C@H]1C[C@H]2CC[C@H]([C@H]1c1ccccc1)N2C (stereo in doubt; (+)-5)
Activity (Rattus norvegicus [16]): Toxic
Activity (Rattus norvegicus [22]): 59%
ED50 (Mus musculus [2]): 11 mg/kg

COC(=O)[C@H]1C[C@H]2CC[C@H]([C@H]1c1cccs1)N2CCO.Cl
Activity (Rattus norvegicus [28]): Active
Activity (Rattus norvegicus [20]): 72%
Activity (Rattus norvegicus [15]): Toxic
Activity (Mus musculus [6]): 73%
Activity (Rattus norvegicus [24]): Toxic
Activity (Rattus norvegicus [7]): 100%
Activity (Rattus norvegicus [18]): Toxic
